The source of these data is ChEMBL document CHEMBL1128776, “Palladium-catalyzed synthesis of (E)-5-(2-acylvinyl)-2-deoxyuridines and their antiviral and cytotoxic activities” (Bioorg Med Chem Lett, 1995).

In general, IC50 refers to the concentration at which inhibition is half-maximal. For orientation: EC50 means the concentration needed to bring the measured effect to its halfway point. A higher EC50 goes with a less potent agent. In general, CC50 refers to the concentration giving 50% cytotoxicity. Read a high CC50 as lower toxicity to the cells.

The structures appear in SMILES notation. Converted amounts (≈) assume the structure as drawn. Some results are limits rather than exact numbers.

Test [1] has as its system E6SM. Nature of the test: In vitro antiviral activity in E6 cell cultures against herpes simplex virus type 1 (HSV-1) TK- VMW 1837. Type of test: functional. The settings on record: Homo sapiens.
The test system of the next test is HeLa. Nature of the test: Minimum cytotoxic concentration against HeLa cells. To be noted: Homo sapiens. The format is functional.
The test system of test [2] is Vero. As to the kind of experiment: Evaluated in vitro for antiviral activity in vero cell cultures against Coxsackie virus type B4. To be noted: Chlorocebus sabaeus. Type of test: functional.
The next test deals with L1210. As to the kind of experiment: Evaluated in vitro for cytostatic activity against murine leukemia cells (L1210). The format is functional, cell-based. To be noted: Mus musculus.
Test [3] has as its system HEL. As to the kind of experiment: Minimum cytotoxic concentration against human embryonic lung (HEL) cells. Type of test: functional.
Test [4] concerns HEL. As to the kind of experiment: Evaluated in vitro for antiviral activity in human embryonic lung (HEL) cell cultures against TK - VZV strain OKA. Type of test: functional, cell-based.
For test [5], the system named is CCRF-CEM. As to the kind of experiment: Evaluated in vitro for cytostatic activity against CEM cells. Type of test: functional, cell-based. To be noted: Homo sapiens.
The test system of test [6] is HEL. Nature of the test: Evaluated in vitro for antiviral activity in human embryonic lung (HEL) cell cultures against TK + VZV strain OKA. Type of test: functional, cell-based.
For test [7], the system named is CCRF-CEM. Nature of the test: 50% effective concentration required to protect CEM cells against the cytopathogenicity of HIV-1. Type of test: functional, cell-based. To be noted: Homo sapiens. (In general: Cytopathic effects are the visible damage that an infection or toxin causes in cultured cells.)
Test [8] has as its system E6SM. Nature of the test: Minimum cytotoxic concentration against E6SM cells. The settings on record: Homo sapiens. The format is functional.
The test system of test [9] is E6SM. As to the kind of experiment: In vitro antiviral activity in E6 cell cultures against vesicular stomatitis virus (VSV). To be noted: Homo sapiens. Type of test: functional.
Test [10] relates to E6SM. Nature of the test: In vitro antiviral activity in E6 cell cultures against herpes simplex virus type 1 (HSV-1) strain KOS. Type of test: functional. The settings on record: Homo sapiens.
For test [11], the system named is CCRF-CEM. Nature of the test: 50% effective concentration required to protect CEM cells against the cytopathogenicity of HIV-2. The format is functional, cell-based. To be noted: Homo sapiens.
The test system of test [12] is HEL. Nature of the test: Evaluated in vitro for antiviral activity in human embryonic lung (HEL) cell cultures against Varicella-Zoster virus (VZV) strain YS. Type of test: functional, cell-based.
Test [13] relates to Vero. Nature of the test: Evaluated in vitro for antiviral activity in vero cell cultures against Parainfluenza virus type 3. The format is functional. To be noted: Chlorocebus sabaeus.
The subject of test [14] is HEL. Nature of the test: Evaluated in vitro for antiviral activity in human embryonic lung (HEL) cell cultures against cytomegalovirus (CMV) strain Davis. The format is functional, cell-based.
In test [15] the test system is Vero. As to the kind of experiment: Evaluated in vitro for antiviral activity in vero cell cultures against forest virus. The format is functional. To be noted: Chlorocebus sabaeus.
A further test has as its system MOLT-4. As to the kind of experiment: Evaluated in vitro for cytostatic activity against human T-lymphocyte cells (Molt 4/C8). The format is functional, cell-based.
A further test relates to FM3A. Nature of the test: Evaluated in vitro for cytostatic activity against murine mammary carcinoma cells (FM3A). Type of test: functional, cell-based. The settings on record: Mus musculus.
Test [16] concerns HEL. As to the kind of experiment: (§1) Evaluated in vitro for antiviral activity in human embryonic lung (HEL) cell cultures against cytomegalovirus (CMV) strain AD-169. Type of test: functional.
Test [17] has as its system HEL. Nature of the test: Evaluated in vitro for antiviral activity in HeLa cell cultures against vesicular stomatitis virus (VSV). Type of test: functional. To be noted: Homo sapiens.
The subject of test [18] is HEL. As to the kind of experiment: Evaluated in vitro for antiviral activity in HeLa cell cultures against polio virus type 1. The settings on record: Homo sapiens. The format is functional.
Test [19] has as its system Vero. As to the kind of experiment: Evaluated in vitro for antiviral activity in vero cell cultures against Sindbis virus. Type of test: functional. The settings on record: Chlorocebus sabaeus.
For test [20], the system named is HEL. As to the kind of experiment: Cytotoxic concentration required to reduce cell growth HEL cells (after 3 days) by 50 %. Type of test: functional. To be noted: Homo sapiens, 72 h.
For test [21], the system named is E6SM. As to the kind of experiment: In vitro antiviral activity in E6 cell cultures against herpes simplex virus type 2 (HSV-2) strain G. Type of test: functional. To be noted: Homo sapiens.
Test [22] relates to E6SM. As to the kind of experiment: In vitro antiviral activity in E6 cell cultures against herpes simplex virus type 1 (HSV-1) TK- B2006. To be noted: Homo sapiens. Type of test: functional.
Test [23] relates to Vero. Nature of the test: Minimum cytotoxic concentration against vero cells. The format is functional. The settings on record: Chlorocebus sabaeus.
Test [24] concerns Vero. Nature of the test: Evaluated in vitro for antiviral activity in vero cell cultures against Reovirus type 1. To be noted: Chlorocebus sabaeus. Type of test: functional.
Test [25] concerns E6SM. Nature of the test: In vitro antiviral activity in E6 cell cultures against vaccinia virus (VV). Type of test: functional. To be noted: Homo sapiens.
In test [26] the test system is HEL. As to the kind of experiment: Evaluated in vitro for antiviral activity in human embryonic lung (HEL) cell cultures against TK- Varicella-Zoster virus (VZV) strain YS/R. The format is functional, cell-based.
In test [27] the test system is HEL. As to the kind of experiment: Evaluated in vitro for antiviral activity in human embryonic lung (HEL) cell cultures against TK+ VZV strain OKA. Type of test: functional, cell-based.
Test [28] has as its system HEL. As to the kind of experiment: Evaluated in vitro for antiviral activity in human embryonic lung (HEL) cell cultures against TK- VZV strain 07/1. The format is functional, cell-based.
Test [29] concerns E6SM. As to the kind of experiment: Evaluated in vitro for its antiviral activity in E6 cell cultures against herpes simplex virus type 2 (HSV-2) strain G. Type of test: functional. The settings on record: Homo sapiens.
In test [30] the test system is E6SM. As to the kind of experiment: Evaluated in vitro for its antiviral activity in E6 cell cultures against herpes simplex virus type 1 (HSV-1) strain KOS. The format is functional. The settings on record: Homo sapiens.
Test [31] concerns E6SM. As to the kind of experiment: Evaluated in vitro for its antiviral activity in E6 cell cultures against vesicular stomatitis virus (VSV). The format is functional. The settings on record: Homo sapiens.
Test [32] relates to HEL. As to the kind of experiment: Evaluated in vitro for antiviral activity in human embryonic lung (HEL) cell cultures against […] TK- strain 07/1. Type of test: functional, cell-based.
Test [33] concerns E6SM. As to the kind of experiment: Evaluated in vitro for its antiviral activity in E6 cell cultures against herpes simplex virus type 1 (HSV-1) TK- VMW 1837. The format is functional. To be noted: Homo sapiens.
For test [34], the system named is E6SM. Nature of the test: Evaluated in vitro for its antiviral activity in E6 cell cultures against herpes simplex virus type 1 (HSV-1) TK- B2006. The format is functional. The settings on record: Homo sapiens.
The subject of test [35] is E6SM. Nature of the test: Evaluated in vitro for its antiviral activity in E6 cell cultures against vaccinia virus (VV). Type of test: functional. To be noted: Homo sapiens.
Test [36] relates to HEL. Described as §1. Type of test: functional, cell-based.
Test [37] concerns HEL. As to the kind of experiment: Evaluated in vitro for antiviral activity in human embryonic lung (HEL) cell cultures against TK+ Varicella-Zoster virus (VZV) strain YS. The format is functional, cell-based.

On to `O=C(/C=C/c1cn([C@H]2C[C@H](O)[C@@H](CO)O2)c(=O)[nH]c1=O)c1ccccc1`, for which the MIC against E6SM [1] was over 10 µg/mL; in the test on Vero [2], over 200 µg/mL; in the test on E6SM [9], over 10 µg/mL; in the test with E6SM [10] it was over 10 µg/mL; against Vero [13] it was over 200 µg/mL; against Vero [15] it was over 200 µg/mL. In addition, the MIC is over 20 µg/mL against HEL [16]; 70 µg/mL (≈ 195 µM) in the test on HEL [17]; over 100 µg/mL against HEL [18]; over 200 µg/mL in the test with Vero [19]; over 10 µg/mL against E6SM [21]; over 10 µg/mL against E6SM [22]. In addition, the MIC against Vero [24] is over 200 µg/mL; against E6SM [25] it was over 10 µg/mL. The MCC in the test with HeLa is 20 µg/mL; in the test with HEL [3], 50 µg/mL; in the test on E6SM [8], 40 µg/mL; with Vero [23], 400 µg/mL. The half-maximal inhibitory concentration (IC50) in the test with L1210 was 30 µg/mL (≈ 83.7 µM); in the test with HEL [4], over 20 µg/mL; in the test on CCRF-CEM [5] it was 24 µg/mL (≈ 67 µM); with HEL [6], over 20 µg/mL; in the test with HEL [12] it was over 20 µg/mL; with HEL [14], over 20 µg/mL. Also, the IC50 in the test on MOLT-4 was 23 µg/mL (≈ 64.2 µM); with FM3A, 32 µg/mL (≈ 89.3 µM); in the test with HEL [26], over 20 µg/mL. Moreover, the half-maximal effective concentration (EC50) with CCRF-CEM [7] and in the test on CCRF-CEM [11] was over 20 µg/mL in each case. The compound further showed a CC50 with HEL [20] of 140 µg/mL (≈ 391 µM).

In the case of `COc1ccc(C(=O)/C=C/c2cn([C@H]3C[C@H](O)[C@@H](CO)O3)c(=O)[nH]c2=O)cc1`, the MIC is over 10 µg/mL against E6SM [1]; over 40 µg/mL against Vero [2]; over 10 µg/mL with E6SM [9]; over 10 µg/mL with E6SM [10]; over 40 µg/mL in the test on Vero [13]; over 40 µg/mL in the test on Vero [15]. The MIC in the test on HEL [16] was over 5 µg/mL; in the test on HEL [17], over 100 µg/mL; in the test with HEL [18] it was over 100 µg/mL; in the test on Vero [19], over 40 µg/mL; in the test on E6SM [21] it was over 10 µg/mL; in the test with E6SM [22], over 10 µg/mL. For the same compound, the MIC with Vero [24] is over 40 µg/mL; against E6SM [25], over 10 µg/mL. Moreover, the MCC in the test on HeLa worked out at 20 µg/mL; in the test on HEL [3] it was 20 µg/mL; with E6SM [8] it was 40 µg/mL; with Vero [23], 100 µg/mL. Besides, the IC50 was over 100 µg/mL with L1210; over 100 µg/mL in the test on CCRF-CEM [5]; over 20 µg/mL in the test on HEL [12]; over 5 µg/mL with HEL [14]; over 100 µg/mL in the test on MOLT-4; over 100 µg/mL with FM3A. The IC50 with HEL [27], in the test on HEL [28] and in the test with HEL [26] was over 20 µg/mL in each case. For the same compound, the EC50 with CCRF-CEM [7] and in the test on CCRF-CEM [11] was over 40 µg/mL throughout. Further, the CC50 in the test with HEL [20] was over 200 µg/mL.

With `O=c1[nH]c(=O)n([C@H]2C[C@H](O)[C@@H](CO)O2)cc1/C=C/Br` [BRIVUDINE], the MCC in the test with HeLa is over 400 µg/mL; in the test with HEL [3], over 50 µg/mL; in the test with E6SM [8], over 400 µg/mL; in the test on Vero [23], over 400 µg/mL. The MIC is 100 µg/mL (≈ 300 µM) against E6SM [29]; over 400 µg/mL in the test with Vero [2]; 0.02 µg/mL (≈ 0.06 µM) with E6SM [30]; over 400 µg/mL against E6SM [31]; over 400 µg/mL in the test with E6SM [33]; over 400 µg/mL against E6SM [34]. For the same compound, the MIC against Vero [13] is over 400 µg/mL; in the test on Vero [15], over 400 µg/mL; in the test on HEL [17], over 400 µg/mL; against HEL [18], over 400 µg/mL; against Vero [19] it was over 400 µg/mL; against E6SM [35], 10 µg/mL (≈ 30 µM). Also, the MIC in the test with Vero [24] is over 400 µg/mL. The IC50 in the test with HEL [32] was 5 µg/mL (≈ 15 µM); with HEL [12], 0.002 µg/mL (≈ 0.006 µM); with HEL [27], 0.0008 µg/mL (≈ 0.0024 µM); with HEL [26], over 50 µg/mL. In the test with HEL [20], this compound returned a CC50 of 150 µg/mL (≈ 450 µM).

Take `Nc1ccn(C[C@@H](CO)OCP(=O)(O)O)c(=O)n1.O.O` [CIDOFOVIR]: the MCC in the test on HEL [3] is over 50 µg/mL. Further, the concentration for half-maximal inhibition (IC50) worked out at 0.075 µg/mL with HEL [14]; 0.065 µg/mL with HEL [27]; 0.06 µg/mL in the test with HEL [36]; 0.055 µg/mL in the test with HEL [28]; 0.09 µg/mL in the test with HEL [37]; 0.05 µg/mL in the test on HEL [26]. Also, in the test with HEL [20], the CC50 was over 200 µg/mL.
